row,logP,SMILES
1,6.67,CCCCCCCCCCCC(=O)C(C)(C)C(=O)N(C)c1c(OC)cc(OC)cc1OC
2,4.88,CCCCCCCCCCCC(=O)C(C)(C)C(=O)Nc1c(OC)cc(OC)cc1OC
3,3.93,CC(C)c1cccc(C(C)C)c1NC(=O)CC(CC(c1ccccc1)c1ccccc1)=NO
4,4.01,CC(C)c1cccc(C(C)C)c1NC(=O)CC(O)CC(c1ccccc1)c1ccccc1 (stereo not given)
5,3.96,CC(C)c1cccc(C(C)C)c1NC(=O)CC(=O)C(c1ccccc1)c1ccccc1
6,5.02,CCCCCCCCCCCC(=O)CC(=O)Nc1c(OC)cc(OC)cc1OC
7,4.2,CC(C)c1cccc(C(C)C)c1NC(=O)CC(=O)CCCCCCCCCCO
8,4.72,CCCCCCCC1CC(C(=O)Nc2c(C(C)C)cccc2C(C)C)C(=O)O1 (stereo not given)
9,4.55,CC(C)c1cccc(C(C)C)c1NC(=O)CC(=O)C1(c2ccccc2)CCCC1
10,2.87,CC(C)c1cccc(C(C)C)c1NC(=O)CC(=O)c1ccccc1

# — the SangsterLogP compilation
